In assay [1] the target is T1, High affinity choline transporter 1 (Homo sapiens, UniProt Q9GZV3).
T1 sequence (Q9GZV3 whole entry): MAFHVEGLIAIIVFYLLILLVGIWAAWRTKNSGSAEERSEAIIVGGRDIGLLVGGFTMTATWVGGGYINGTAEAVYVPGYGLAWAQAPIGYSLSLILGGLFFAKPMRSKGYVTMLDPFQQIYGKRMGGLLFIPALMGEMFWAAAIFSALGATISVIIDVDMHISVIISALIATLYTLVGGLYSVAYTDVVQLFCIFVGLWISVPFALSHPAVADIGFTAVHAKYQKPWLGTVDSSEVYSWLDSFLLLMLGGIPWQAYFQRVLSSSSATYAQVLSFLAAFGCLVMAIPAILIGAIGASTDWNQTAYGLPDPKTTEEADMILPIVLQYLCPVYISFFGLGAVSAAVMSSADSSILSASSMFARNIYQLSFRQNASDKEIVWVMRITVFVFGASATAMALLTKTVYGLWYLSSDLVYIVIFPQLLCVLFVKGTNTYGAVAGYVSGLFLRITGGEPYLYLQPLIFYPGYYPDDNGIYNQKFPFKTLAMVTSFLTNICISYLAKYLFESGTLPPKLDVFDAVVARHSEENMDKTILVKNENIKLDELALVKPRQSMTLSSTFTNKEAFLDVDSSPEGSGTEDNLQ
Briefly: human choline transporter blockers, potency – cell-based, 5-point CRC, membrane potential dye, dose response (AID 504840). The class given is functional.

For the next assay, the target named is T2, Protein skinhead-1 (Caenorhabditis elegans, UniProt P34707).
T2 sequence (P34707 whole entry): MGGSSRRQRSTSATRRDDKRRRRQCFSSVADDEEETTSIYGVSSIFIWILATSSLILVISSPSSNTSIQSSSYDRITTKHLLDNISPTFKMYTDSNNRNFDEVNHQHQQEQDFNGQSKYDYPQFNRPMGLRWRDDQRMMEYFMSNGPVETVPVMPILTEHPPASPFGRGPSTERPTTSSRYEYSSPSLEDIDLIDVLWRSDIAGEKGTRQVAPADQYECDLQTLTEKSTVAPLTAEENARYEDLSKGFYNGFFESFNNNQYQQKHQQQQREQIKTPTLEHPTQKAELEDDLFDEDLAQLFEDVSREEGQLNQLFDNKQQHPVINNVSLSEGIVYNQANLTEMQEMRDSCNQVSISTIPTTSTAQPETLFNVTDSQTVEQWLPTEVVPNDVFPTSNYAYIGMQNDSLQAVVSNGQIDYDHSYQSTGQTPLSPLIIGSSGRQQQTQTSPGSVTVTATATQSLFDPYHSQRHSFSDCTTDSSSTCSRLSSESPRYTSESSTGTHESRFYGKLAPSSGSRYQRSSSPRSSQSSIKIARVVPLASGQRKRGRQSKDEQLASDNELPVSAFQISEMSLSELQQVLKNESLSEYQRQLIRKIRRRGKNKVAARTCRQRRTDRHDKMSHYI
Type of assay: functional.

A short description of assay [2]: cells. The class given is functional, cell-based.
Assay [3] can be described thus: cells. The class given is functional, cell-based. This is another data set of the same source.
For assay [4], the target named is FAD-linked sulfhydryl oxidase ALR (Homo sapiens, UniProt P55789). Briefly: ALR-catalysed DTT oxidation blockers – biochemical, H2O2 detection, luminescence, cherry-pick, dose response (AID 493248).
A short description of assay [5]: microbe, parasite or virus in culture. The class given is functional. To be noted: Mycobacterium tuberculosis.
The target of assay [6] is T3, Polyadenylate-binding protein 1 (Homo sapiens, UniProt P11940). The assay can be described thus: MLLE binding blockers, Cy5 peptide tracer – biochemical, fluorescence polarization, Cy5-PAM2 peptide, secondary, miRNA deadenylation inhibitor project, dose response (AID 602260). Type of assay: functional. To be noted: read-out: IC50_Mean.
Assay [7] addresses T3, Polyadenylate-binding protein 1. The assay can be described thus: MLLE domain peptide-binding blockers, IC50 – biochemical, fluorescence polarization, FITC-PAM2 peptide, dose response (AID 602259). Conditions: read-out: IC50_Mean. Type of assay: functional.
Assay [8] is described as follows: NIH3T3 cell viability loss – ATP luminescence, mouse fibroblasts, counter-screen, dose response (AID 2010).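 Also: cells exposed to compound for about 90 hours before reading.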 The class given is functional, cell-based.
Assay [9] in a line: Trypanosoma cruzi growth suppression in host cells – NIH3T3 host cells, beta-gal luminescence, confirmation (AID 2044).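 Also: intracellular parasites grown in NIH/3T3 mouse fibroblasts as host cells; luminescent beta-galactosidase reporter signal from transgenic T. cruzi replicating inside host cells; inhibitors lower the luminescence signal.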 Type of assay: functional, cell-based.
The nature of assay [10]: viability of PTEN-deleted HCT116 cells – cell-based, HCT116 PTEN knockout, dose response (AID 1047).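 Also: HCT116 colon tumor cells with PTEN knocked out; cells exposed to compound for 60 hours before readout; potency for loss of cell viability measured by luminescence.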 Type of assay: functional.
The next assay deals with Streptococcus. The assay can be described thus: GAS UMAA2166 growth inhibition – luminescence, BacTiterGlo, counter-screen for streptokinase expression inhibitor project, dose response (AID 1915).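 Also: potency for reduction of bacterial viability or growth.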 The class given is functional, organism-based.
Assay [11] is described as follows: viability of HCT116 lacking mutant beta-catenin – cell-based, human colon tumor, dose response (AID 1045).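 Also: HCT116 colon tumor cells with beta catenin knocked out; cells exposed to compound for 60 hours.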 Type of assay: functional.
The subject of assay [12] is Streptococcus sp. 'group A'. Briefly: Streptococcus pyogenes SK(-)GAS viability under kanamycin – luminescence, BacTiterGlo, confirmation, counter-screen for streptokinase expression inhibitor project, dose response (AID 1900). The class given is functional, organism-based.
A further assay deals with INS1. The assay can be described thus: INS-1E survival protection against cytokine death – cell-based, luminescence, retest, dose response (AID 449756).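 Also: cell death triggered by IL-1 beta plus TNF-alpha plus IFN-gamma mixture; protective hits raise ATP signal compared with cytokine alone wells.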 To be noted: Rattus norvegicus. The class given is functional.
The target of another assay is T4, Streptokinase A (Streptococcus pyogenes serotype M1, UniProt P10520).
T4 sequence (P10520 whole entry): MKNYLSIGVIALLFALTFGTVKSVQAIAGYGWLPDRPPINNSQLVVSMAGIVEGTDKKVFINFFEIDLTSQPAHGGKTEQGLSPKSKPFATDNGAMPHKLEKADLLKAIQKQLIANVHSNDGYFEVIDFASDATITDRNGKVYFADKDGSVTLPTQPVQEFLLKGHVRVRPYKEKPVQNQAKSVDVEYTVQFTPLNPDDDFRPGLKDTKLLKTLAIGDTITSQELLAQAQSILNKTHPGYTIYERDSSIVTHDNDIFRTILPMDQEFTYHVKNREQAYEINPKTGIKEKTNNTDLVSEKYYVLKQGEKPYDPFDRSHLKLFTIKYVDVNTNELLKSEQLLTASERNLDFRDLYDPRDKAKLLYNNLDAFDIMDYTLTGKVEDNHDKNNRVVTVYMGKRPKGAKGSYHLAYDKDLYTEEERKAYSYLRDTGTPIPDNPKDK
Briefly: viability-normalized secreted streptokinase activity reduction – plasminogen activation absorbance, OD405, dose response (AID 1914).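 Also: secreted streptokinase activity via plasminogen activation per viability signal from cell pellet.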 Type of assay: functional, Streptococcus pyogenes M1 GAS.

Assay [13] addresses T5, Rac GTPase-activating protein 1 (Homo sapiens, UniProt Q9H0H5).
T5 sequence (Q9H0H5 whole entry): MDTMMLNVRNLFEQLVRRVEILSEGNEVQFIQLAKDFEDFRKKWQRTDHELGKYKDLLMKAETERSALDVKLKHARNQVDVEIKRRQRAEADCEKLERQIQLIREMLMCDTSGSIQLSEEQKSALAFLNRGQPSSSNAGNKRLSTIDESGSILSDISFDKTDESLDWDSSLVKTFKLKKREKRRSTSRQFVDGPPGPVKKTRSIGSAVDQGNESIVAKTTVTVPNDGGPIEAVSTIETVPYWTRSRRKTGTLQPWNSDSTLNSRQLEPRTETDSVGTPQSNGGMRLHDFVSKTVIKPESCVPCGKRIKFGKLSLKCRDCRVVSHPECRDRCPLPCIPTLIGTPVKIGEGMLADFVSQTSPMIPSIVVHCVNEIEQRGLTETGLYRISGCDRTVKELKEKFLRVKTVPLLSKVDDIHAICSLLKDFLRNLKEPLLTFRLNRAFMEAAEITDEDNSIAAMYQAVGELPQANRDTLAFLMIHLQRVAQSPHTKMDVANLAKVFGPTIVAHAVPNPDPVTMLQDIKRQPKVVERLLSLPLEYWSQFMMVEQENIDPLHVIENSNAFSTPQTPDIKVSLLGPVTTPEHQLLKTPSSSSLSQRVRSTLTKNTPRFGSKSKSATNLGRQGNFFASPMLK
The assay can be described thus: blockers of MgcRacGAP-driven Rac1 GTP hydrolysis – biochemical, ADP Hunter fluorescence, primary and confirmatory, confirmation (AID 624330). Type of assay: functional.

A short description of assay [14]: reduction of Shn3 3'UTR-driven luciferase in osteoblasts – cell-based, Clone20 osteoblasts, firefly luciferase, cherry-picked, dose response (AID 624132).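 Also: firefly luciferase luminescence from reporter carrying the Shn3 3'UTR in osteoblasts.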 Type of assay: functional.
Assay [15] can be described thus: non-specific 3'UTR reporter inhibition in Clone20-Shn3RL – cell-based, Renilla luciferase, cherry-picked, counter-screen for Shn3 inhibitor project, dose response (AID 624133). The class given is functional.
Another assay deals with Paired box protein Pax-8 (Homo sapiens, UniProt Q06710). Briefly: PAX8 transcriptional activity inhibition in RMG-I – RMG-I cells, luciferase, cherry-pick, dose response (AID 687027).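 Also: luciferase reporter driven by Pax8 target thyroperoxidase promoter measured by SteadyGlo luminescence.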 The class given is functional, cell-based.
A short description of assay [16]: OVCAR-3 cell viability loss – plate reader, dry powder samples, PAX8 inhibitor project, dose response (AID 743044). Type of assay: functional, cell-based.

The results in this text go back to ChEMBL document CHEMBL1201862, “PubChem BioAssay data set” (2004).

Calls of active or inactive are those of the source.

Chain of FAD-linked sulfhydryl oxidase ALR (P55789 whole entry): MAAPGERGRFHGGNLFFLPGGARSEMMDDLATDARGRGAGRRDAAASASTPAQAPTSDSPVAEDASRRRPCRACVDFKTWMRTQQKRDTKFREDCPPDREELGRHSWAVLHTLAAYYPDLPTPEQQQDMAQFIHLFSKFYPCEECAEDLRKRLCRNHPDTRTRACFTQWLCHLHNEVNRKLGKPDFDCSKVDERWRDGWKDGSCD
T3 sequence (P11940 whole entry, the tested form may be a part): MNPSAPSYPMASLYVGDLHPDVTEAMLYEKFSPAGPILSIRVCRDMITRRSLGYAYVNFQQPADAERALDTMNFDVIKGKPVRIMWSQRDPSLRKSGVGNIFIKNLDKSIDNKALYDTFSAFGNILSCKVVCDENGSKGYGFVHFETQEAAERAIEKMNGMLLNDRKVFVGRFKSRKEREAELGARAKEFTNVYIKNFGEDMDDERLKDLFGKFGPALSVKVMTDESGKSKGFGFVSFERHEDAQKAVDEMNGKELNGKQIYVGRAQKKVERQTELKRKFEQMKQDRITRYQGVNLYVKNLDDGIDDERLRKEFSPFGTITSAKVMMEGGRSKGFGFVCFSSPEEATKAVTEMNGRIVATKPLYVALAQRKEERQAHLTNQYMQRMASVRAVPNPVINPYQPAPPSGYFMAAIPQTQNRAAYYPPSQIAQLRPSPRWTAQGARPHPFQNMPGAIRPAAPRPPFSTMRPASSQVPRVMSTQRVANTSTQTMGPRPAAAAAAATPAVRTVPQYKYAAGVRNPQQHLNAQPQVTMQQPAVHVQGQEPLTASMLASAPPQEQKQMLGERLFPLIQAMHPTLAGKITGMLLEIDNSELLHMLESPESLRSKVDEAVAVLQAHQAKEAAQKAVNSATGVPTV
Chain of Paired box protein Pax-8 (Q06710 whole entry): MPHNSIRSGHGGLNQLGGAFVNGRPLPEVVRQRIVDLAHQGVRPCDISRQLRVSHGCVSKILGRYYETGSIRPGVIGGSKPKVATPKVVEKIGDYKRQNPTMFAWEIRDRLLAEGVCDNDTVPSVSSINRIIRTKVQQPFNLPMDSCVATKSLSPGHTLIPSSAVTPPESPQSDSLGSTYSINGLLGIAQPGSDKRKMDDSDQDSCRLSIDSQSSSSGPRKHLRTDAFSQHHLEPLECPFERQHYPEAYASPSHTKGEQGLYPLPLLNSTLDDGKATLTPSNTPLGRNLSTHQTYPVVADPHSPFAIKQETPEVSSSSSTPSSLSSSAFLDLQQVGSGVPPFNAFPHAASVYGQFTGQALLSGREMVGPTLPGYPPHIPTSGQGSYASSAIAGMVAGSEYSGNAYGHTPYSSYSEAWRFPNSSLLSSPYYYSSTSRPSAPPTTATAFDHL

Consider `CC#CCN(CC#CC)S(=O)(=O)c1ccc(-n2cnnn2)c(OC)c1`, for which the IC50 in assay [1] was 3.16 µM (active).
As for `c1ccc(CSc2ccc(-c3ccco3)nn2)cc1`, the IC50 at Protein skinhead-1 was > 100 µM (inactive).
For `CCCS(=O)(=O)N1CCC(C(=O)NCc2cccnc2)CC1`, on Protein skinhead-1, the IC50 was > 100 µM (inactive).
Still for that read-out and setting: to `CCCCOC(=O)c1ccc(NC(=O)/C=C/c2cccs2)cc1` belongs > 100 µM (inactive).
Take `Cc1ccc(NC(=S)N(Cc2cccs2)Cc2cc3cccc(C)c3nc2O)cc1`: the EC50 in “cells [2]” and in the assay “cells [3]” was > 350 µM (not active) in each case.
Consider `Fc1ccccc1CSc1ccc(-c2ccco2)nn1`, for which, on Protein skinhead-1, the IC50 is 64.6 µM (inactive).
`Cc1occc1C(=O)NCCCCc1ccccc1`: in assay [4], the AC50 was 0.488 µM (active).
For `Cc1ccc(N/C=C/C(=O)c2cccs2)cc1C`, the IC50 at Protein skinhead-1 was > 100 µM (inactive).
Regarding `S=C(Nc1ccc(Cl)cc1)NC1CC2CCC(C1)N2Cc1ccccc1` (stereo not drawn), the CC50 in assay [5] is > 40 µM (active).
For `CCCCC(=O)OCC(=O)N1N=C(c2c[nH]c3ccccc23)C(O)C1c1ccc(OC)cc1` (stereo not drawn), the CC50 in assay [5] is > 40 µM (active).
Regarding `O=C(NC1=NCCS1)c1csc2ccccc12`, the IC50 in assay [6] and in [7] was > 66 µM (inactive) each time. Besides, the AC50 in [4] was 0.582 µM (active).
As to `COc1ccc(C(=O)N(C)CCCC2CCCC2)cc1OC1CCN(C(C)C)CC1`, the IC50 in assay [1] was 12 µM (active).
The same measure, in the same setting: with `CCn1c(SCc2nc(-c3ccccc3)no2)nnc1-c1ccco1` the figure was 13.6 µM (active).
Turning to `CCOC(=O)N1CCC(N2Cc3cccc(C(=O)Nc4ccc(N(CC)CC)cc4C)c3C2=O)CC1`, the CC50 in [5] is > 40 µM (active).
In the case of `Cc1cccc(C)c1NC(=O)c1ccc(CN2CCc3ccccc3C2)cc1`, the IC50 in [1] was 18.2 µM (active).
Still for that read-out and setting: to `CCCc1cc(O)c2c(C)cc(=O)oc2c1` belongs 14.5 µM (active).
`Cc1ccc(NC2CCCN(C(=O)c3ccc(C)c(N4CCNC4=O)c3)C2)cc1C` (stereo not drawn): the AC50 in [4] was 3.32 µM (active).
For the compound `CN=C(S)N=CNOCc1c(Cl)cccc1Cl`, in assay [5], the CC50 is > 40 µM (active).
With `CCn1c(=O)c(CCC(=O)N2CCN(c3ccccn3)CC2)c(C)c2c(C)nn(-c3cccc(C)c3)c21`, the EC50 is > 60 µM (not active) in assay [8] and 1.59 µM (active) in assay [9]. In assay [5], the CC50 was > 40 µM (active).
Regarding `c1ccc2c(c1)ncn2CCCOc1ccc2c(c1)CCC2`, the EC50 in [10] is 30.5 µM (active); with Streptococcus, > 150 µM (not active); in [11], 21.6 µM (active); in [12], 22.4 µM (active); at Streptokinase A it was > 150 µM (not active). Moreover, the AC50 with INS1 was 7.64 µM (active).
Regarding `Cc1ccc(Oc2ncc(CN3CC(C)OC(C)C3)s2)cc1` (stereo not drawn), the EC50 in “cells [2]” and in “cells [3]” was > 350 µM (not active) throughout.
On to `N#C/C=C\Oc1ccc(Cl)cc1N`, for which the IC50 in assay [13] was 218 µM (active). For the same compound, the CC50 in assay [5] is > 40 µM (active).
For `Cc1cc(C)c(NC(=O)c2ccc(CN3CCc4ccccc4C3)cc2)c(C)c1`, the IC50 in [1] is 12.9 µM (active).
Consider `c1ccc(-c2noc(CSc3nc4ccccc4o3)n2)cc1`, for which the IC50 on Protein skinhead-1 is 75.7 µM (inactive).
Regarding `COc1cc(C(=O)c2ccccc2)c(OC)cc1C(=O)Nc1ccc(O)cc1`, in assay [4], the AC50 is 0.039 µM (active).
Same read-out and setting: with `COc1cccc(OC)c1C(=O)N1CCN=C1SCc1cccnc1` the figure was 0.043 µM (active).
`C[C@H]1CCC/C=C/[C@@H]2C[C@H](O)C[C@H]2[C@@H](O)/C=C/C(=O)O1`: the AC50 is 2.17 µM (active) in assay [14] and 1.7 µM (active) in assay [15].
As for `C[C@@H]1CN([C@H](C)CO)C(=O)c2cccc(NC(=O)Nc3cccc4ccccc34)c2O[C@H]1CN(C)C(=O)Nc1ccc(C(F)(F)F)cc1`, the concentration at half-maximal activity (AC50) is 14.6 µM (active) at Paired box protein Pax-8 and 64.2 µM (active) in assay [16].
Turning to `Cc1cccc(/C=N/n2c(S)nnc2-c2ccccc2)c1O`, the AC50 in assay [4] is 3.82 µM (active).
